The values below come from publication PMC8468663, “Co-Spray Dried Nafamostat Mesylate with Lecithin and Mannitol as Respirable Microparticles for Targeted Pulmonary Delivery: Pharmacokinetics and Lung Distribution in Rats” (Pharmaceutics, 2021).

For series [1] the following is noted: cited from earlier work.
Series [2] is described as follows: in vivo. The following applies: rat, 10 mg/kg; for half-life: T½. The arrangement: species or system Sprague–Dawley rats. The method, then:
The Chungbuk National University Institutional Animal Care and Use Committee approved the experimental protocols and animal care methods used in this study. The first in vivo experiment was a pharmacokinetic study to determine the efficacy of NFM based on the route of administration and to determine the effect of lecithin as a stabilizer. After preparing a 0.5% mannitol solution (w/v), NFM was added at a concentration of 25 mg mL^−1 to prepare solution A. In addition, Tween 80 was added to solution A at 1% (w/v), plus lecithin, which was added at a concentration of 25 mg mL^−1, and stirred to evenly disperse it to produce solution B. Each experiment was carried out using a male SD rat (8 weeks old, 230–250 g) in three groups of 16 animals each. The SD rats were fed a commercial pellet diet and fresh water and housed at room temperature (23 ± 1 °C) with a relative humidity of 50 ± 10%, and a 12 h light and dark cycle. First, the intravenous (IV) group was administered a 100 μL dose of solution A (10 mg·kg^−^1) intravenously through the lateral tail vein. Second, a 100 μL dose of solution A (10 mg kg^−^1) was administered by intratracheal instillation (ITI) to the intratracheal instillation-1 (ITI-1) group. Finally, the ITI-2 group was administered a 100 μL dose of solution B (10 mg·kg^−^1). For the analysis of plasma concentration, blood was collected via the orbital vein 1, 5, 10, 30, and 60 min after administration to each group (n = 4). Blood was collected in a heparin tube and gently shaken. Plasma was immediately separated from the blood samples by centrifugation at 3000 rpm for 2 min. After administration to each group (n = 12), 4 rats were sacrificed at 10, 30, and 60 min. BALF samples were obtained by injecting and extracting 5 mL DW into the lungs of the rats. Lung tissues were placed in 10 mL DW and homogenized at 18,000 rpm for 3 min using a homogenizer. Acetonitrile (ACN) was added to plasma, BALF, and lung tissue samples in a ratio of 1:1 (v/v) to precipitate the proteins, and the sample solutions were centrifuged at 18,000 rpm for 5 min to obtain a supernatant. The supernatant was quantified by HPLC analysis. A second in vivo experiment was performed to determine the efficacy of NFM microparticles in a DPI formulation, focusing on the lung lumen and tissue. First, the solution group was administered a solution at a dose of 0.25 mg NFM per rat by ITI (1 mg·kg^−^1). Second, the SD-NM group was treated using a dry powder insufflator for the intratracheal administration of the SD-NM in the form of DPI at a dose of 0.25 mg of NFM per rat (1 mg·kg^−^1). Finally, the SD-NLM group was administered an SD-NLM at a dose of 0.25 mg of NFM per rat (1 mg kg^−^1) using a dry powder insufflator. BALF and lung tissue samples were prepared using the same procedure as that used for the in vivo study described above. The samples were quantified by HPLC analysis.

In series [3] the test system is SARS-CoV-2 entry into host cells. Details: method as in PMID 32312781. As to conditions: cited from earlier work.
[4] abbreviates: male, Sprague-Dawley, Amount of NFM in BALF.
Where [5] appears, read: male, Sprague-Dawley, inhaled or intranasal.

Structures are written as SMILES. Where a name gives a salt, the structure may show the parent alone.

As for `N=C(N)c1ccc2cc(OC(=O)c3ccc(N=C(N)N)cc3)ccc2c1` [NFM, Nafamostat mesylate], in series [1], the “Half-life in human blood” value is recorded as “approximately 3 min”. In series [2] (male, Sprague-Dawley, 10 min), the “Amount of NFM in BALF” value was found to be 4.48 µg/mL. Also, in series [2] (male, Sprague-Dawley, 30 min), the “Amount of NFM in BALF” value was determined as 1.69 µg/mL. In series [2] (setting [4]), this compound had a concentration at 10 min of 2900 ng/mL and a concentration at 30 min of 1690 ng/mL. Also, the Tmax in series [2] (male, Sprague-Dawley, Tmax) was 5 min. Moreover, in series [2] (setting [5]), the Cmax was 22900 ± 4640 ng/mL, the time to peak (Tmax) was 4.0 ± 1.00 min, the T½ is on record as 28.6 ± 3.51 min and the AUC(0-inf) is 11200 ng·h/mL. In series [2] (setting [5]), this compound came in with a half-life of 26.7 ± 2.6 min. In addition, the concentration in series [2] (male, Sprague-Dawley, inhaled or intranasal, Cmax) peaked (Cmax) at 25900 ± 4230 ng/mL. Moreover, in series [2] (male, Sprague-Dawley, iv), the “AUC(inf)” value came out at 436.1 ± 31.59 µg·min/mL, the AUC(0-inf) is 7270 ng·h/mL and the half-life came out at 13.2 ± 0.52 min. Also, in series [2] (male, Sprague-Dawley, iv, Amount of NFM in BALF), the concentration at 10 min was determined as 960 ng/mL. In series [2] (male, Sprague-Dawley, iv, Cmax), this compound showed a Cmax of 43700 ± 7980 ng/mL. Besides, in series [2], the “Amount of NFM in BALF” value is on record as “still had remaining NFM in the BALF” and the “Amount of NFM in lung tissue” value is “some residual drug”. In series [2] (iv), the “Amount of NFM in BALF” value was “There was no NFM in the BALF”; the “Half-life of ITI-1 and ITI-2 groups relative to IV group” value is listed as “approximately twice”. In series [3], the “EC50, inhibition of SARS-CoV-2 entry into host cells” value is “low nanomolar range” and the “Efficiency of inhibition of SARS-CoV-2 entry relative to camostat mesylate” value is recorded as “approximately 15 fold”.
